Where two headings read alike, the source gives them in different places.
Experiments:
[1] = test system: MRSA with intermediate resistance to glycopeptides; test: MIC of vancomycin or teicoplanin for MRSA with intermediate resistance to glycopeptides grown with GBE or NAGly (Table 4); assay type: cell-based, Staphylococcus aureus; settings: for MIC: Staphylococcus aureus
[2] = cited from earlier work
[3] = test system: glycopeptide-resistant enterococci; settings: cited from earlier work
E. faecium = settings: cited from earlier work
[4] = test system: vancomycin-resistant enterococci (VRE); test: Activity of BTAs against vancomycin-resistant enterococci; assay type: cell-based
MRSA [5] = test: Antimicrobial plus BTA against recent clinical MRSA isolates (Table 7); assay type: cell-based, Staphylococcus aureus
Excerpt: The four clinical isolates were isolated from patients during the first three months of 2003. […] An intermediate MRSA has been included, as methicillin-resistance has been achieved by means other than production of PBP2a.

MRSA [6] = test: Screening on Isosensitest agar with incorporated BTA and 10 μg methicillin discs; assay type: cell-based, Staphylococcus aureus
Protocol: To find substances related to GBE that might have increased potency, various substances, including those with additional glycine moieties and benzylates, have been screened. Screening was carried out using Isosensitest agar (Oxoid, UK) into which various levels of potential BTAs were incorporated at levels between 0.01 and 1.0%. The agar with incorporated BTA was then used in the manner of a standard antibiotic sensitivity test using 10 μg methicillin discs. The test organism was inoculated onto the agar surface at a concentration suitable to achieve confluent growth after 18 hours incubation at 30° C. After incubation, zone diameters were compared with that achieved by the control plate (Isosensitest alone) for each test organism.

VRE = test: Antimicrobial plus BTA against VRE (Table 7); assay type: cell-based, enterococci
[7] = test system: vancomycin- and gentamicin-resistant Enterococcus faecium; test: microbe, parasite or virus in culture; assay type: cell-based; settings: ATCC29212, read-out: MIC of vancomycin, ATCC 29212 (vancomycin-sensitive reference strain), 0.0 (Control)
[8] = test system: vancomycin- and gentamicin-resistant Enterococcus faecium; test: microbe, parasite or virus in culture; assay type: cell-based; settings: Enterococcus faecium, 0.0 (Control)
Excerpt: The agents of the present invention are not limited to the reversal of resistance in Staphylococcus. The test strains in Table 5 are patient-isolates of vancomycin- and gentamicin-resistant Enterococcus faecium. At the time of isolation, they were commonly resistant to all clinically useable antimicrobial agents.

[9] = vanA, E. faecium and E. faecalis

Work on teicoplanin yielded an MIC of teicoplanin ([1]; L265, EMRSA-16 (TISA), Control) of 32 µg/mL, an MIC of teicoplanin ([1]; L266, EMRSA-16 (TISA), Control) of 8 µg/mL and an MIC of teicoplanin ([1]; NCTC 12493, Control) of 0.25 µg/mL. For the same molecule, the half life [2] was 12 h, the “level of teicoplanin to which resistance is conferred” value (“level of teicoplanin” for short) [3, 9] was ≥ 32 mg/L and the “level of teicoplanin” value ([3]; vanB) was ≤ 1.0. For the same molecule, the “level of teicoplanin” value ([3]; vanC1, vanC2, vanC3) was ≤ 1.0 and the “level of teicoplanin” value ([3]; vanE, E. faecalis) was 0.5 mg/L.

In the case of quinupristin/dalfopristin, the “E. faecium isolates against which active (MIC≦2 mg/L)” value (E. faecium) is listed as 86%.

In the case of N-carbamoylglycine (Hydantoic acid), the “activity against vancomycin-resistant enterococci (VRE)” value [4] is reported as “low-level active”.

`CCOC(=O)CNC(=O)CN` [GGEE, Glycylglycine ethyl ester] showed an Oxacillin (antimicrobial plus BTA; quantity not named, MIC implied) (MRSA [5]; EMRSA-16, +BTA 0.01%) of 1.5 µg/mL, a Cephalexin (antimicrobial plus BTA; quantity not named, MIC implied) (MRSA [5]; EMRSA-16, +BTA 0.1%) of 1.5 µg/mL and an Oxacillin (antimicrobial plus BTA; quantity not named, MIC implied) (MRSA [5]; EMRSA-16, +BTA 0.1%) of 1 µg/mL. For the same molecule, the Cephalexin (antimicrobial plus BTA; quantity not named, MIC implied) (MRSA [5]; EMRSA-16, +BTA 1.0%) was 0.75 µg/mL, the Oxacillin (antimicrobial plus BTA; quantity not named, MIC implied) (MRSA [5]; EMRSA-16, +BTA 1.0%) was 0.75 µg/mL and the Vancomycin (antimicrobial plus BTA; quantity not named, MIC implied) (MRSA [5]; EMRSA-16, +BTA 1.0%) was 0.25 µg/mL. It also gave an Oxacillin (antimicrobial plus BTA; quantity not named, MIC implied) (MRSA [5]; EMRSA-17, +BTA 0.01%) of 3 µg/mL, a Cephalexin (antimicrobial plus BTA; quantity not named, MIC implied) (MRSA [5]; EMRSA-17, +BTA 0.1%) of 2 µg/mL and an Oxacillin (antimicrobial plus BTA; quantity not named, MIC implied) (MRSA [5]; EMRSA-17, +BTA 0.1%) of 2 µg/mL. It also gave a Cephalexin (antimicrobial plus BTA; quantity not named, MIC implied) (MRSA [5]; EMRSA-17, +BTA 1.0%) of 1 µg/mL, an Oxacillin (antimicrobial plus BTA; quantity not named, MIC implied) (MRSA [5]; EMRSA-17, +BTA 1.0%) of 1 µg/mL and a Vancomycin (antimicrobial plus BTA; quantity not named, MIC implied) (MRSA [5]; EMRSA-17, +BTA 1.0%) of 0.25 µg/mL. For the same molecule, the Oxacillin (antimicrobial plus BTA; quantity not named, MIC implied) (MRSA [5]; I-MRSA, +BTA 0.01%) was 1 µg/mL, the Cephalexin (antimicrobial plus BTA; quantity not named, MIC implied) (MRSA [5]; I-MRSA, +BTA 0.1%) was 0.75 µg/mL and the Oxacillin (antimicrobial plus BTA; quantity not named, MIC implied) (MRSA [5]; I-MRSA, +BTA 0.1%) was 0.75 µg/mL. For the same molecule, the Cephalexin (antimicrobial plus BTA; quantity not named, MIC implied) (MRSA [5]; I-MRSA, +BTA 1.0%) was 0.38 µg/mL, the Oxacillin (antimicrobial plus BTA; quantity not named, MIC implied) (MRSA [5]; I-MRSA, +BTA 1.0%) was 0.32 µg/mL and the Vancomycin (antimicrobial plus BTA; quantity not named, MIC implied) (MRSA [5]; I-MRSA, +BTA 1.0%) was < 0.25 µg/mL. The “activity against VRE and MRSA relative to glycylglycine benzyl ester” value (MRSA [6]; VRE and MRSA) was “greater activity” and the Vancomycin (antimicrobial plus BTA; quantity not named, MIC implied) (VRE; +BTA 1.0%) was 64 µg/mL.

For `Nc1ccc(C(=O)NCC(=O)O)cc1` [Amino-HA, P-Amino Hippuric acid], the Cephalexin (antimicrobial plus BTA; quantity not named, MIC implied) (MRSA [5]; EMRSA-16, +BTA 0.01%) was 3 µg/mL, the Oxacillin (antimicrobial plus BTA; quantity not named, MIC implied) (MRSA [5]; EMRSA-16, +BTA 0.01%) was 3 µg/mL and the Cephalexin (antimicrobial plus BTA; quantity not named, MIC implied) (MRSA [5]; EMRSA-16, +BTA 0.1%) was 1 µg/mL. It also gave an Oxacillin (antimicrobial plus BTA; quantity not named, MIC implied) (MRSA [5]; EMRSA-16, +BTA 0.1%) of 0.75 µg/mL, a Vancomycin (antimicrobial plus BTA; quantity not named, MIC implied) (MRSA [5]; EMRSA-16, +BTA 0.1%) of 0.25 µg/mL and a Cephalexin (antimicrobial plus BTA; quantity not named, MIC implied) (MRSA [5]; EMRSA-17, +BTA 0.01%) of 6 µg/mL. It also gave an Oxacillin (antimicrobial plus BTA; quantity not named, MIC implied) (MRSA [5]; EMRSA-17, +BTA 0.01%) of 6 µg/mL, a Cephalexin (antimicrobial plus BTA; quantity not named, MIC implied) (MRSA [5]; EMRSA-17, +BTA 0.1%) of 4 µg/mL and an Oxacillin (antimicrobial plus BTA; quantity not named, MIC implied) (MRSA [5]; EMRSA-17, +BTA 0.1%) of 1 µg/mL. For the same molecule, the Vancomycin (antimicrobial plus BTA; quantity not named, MIC implied) (MRSA [5]; EMRSA-17, +BTA 0.1%) was 0.25 µg/mL, the Cephalexin (antimicrobial plus BTA; quantity not named, MIC implied) (MRSA [5]; I-MRSA, +BTA 0.01%) was 1.5 µg/mL and the Oxacillin (antimicrobial plus BTA; quantity not named, MIC implied) (MRSA [5]; I-MRSA, +BTA 0.01%) was 1.5 µg/mL. For the same molecule, the Cephalexin (antimicrobial plus BTA; quantity not named, MIC implied) (MRSA [5]; I-MRSA, +BTA 0.1%) was 0.064 µg/mL, the Oxacillin (antimicrobial plus BTA; quantity not named, MIC implied) (MRSA [5]; I-MRSA, +BTA 0.1%) was 0.064 µg/mL and the Vancomycin (antimicrobial plus BTA; quantity not named, MIC implied) (MRSA [5]; I-MRSA, +BTA 0.1%) was < 0.25 µg/mL. The “activity relative to Hippuric acid and GBE” value (MRSA [6]) was “improved activity” and the Vancomycin (antimicrobial plus BTA; quantity not named, MIC implied) (VRE; +BTA 0.1%) was 64 µg/mL.

In the case of `CN[C@H](CC(C)C)C(=O)N[C@H]1C(=O)N[C@@H](CC(N)=O)C(=O)N[C@H]2C(=O)N[C@H]3C(=O)N[C@H](C(=O)N[C@H](C(=O)O)c4cc(O)cc(O)c4-c4cc3ccc4O)[C@H](O)c3ccc(c(Cl)c3)Oc3cc2cc(c3O[C@@H]2O[C@H](CO)[C@@H](O)[C@H](O)[C@H]2O[C@H]2C[C@](C)(N)[C@H](O)[C@H](C)O2)Oc2ccc(cc2Cl)[C@H]1O` [vancomycin], the MIC ([1]; MRSA / NCTC 12493, read-out: MIC of vancomycin, NCTC 12493, Control) is reported as 0.5 µg/mL, the MIC ([1]; MRSA / NCTC 12493, read-out: MIC of vancomycin, reference strain NCTC 12493, as stated in text on Table 1) is reported as 2 µg/mL and the MIC ([1]; MRSA / VISA, read-out: MIC of vancomycin, L266 (first line), EMRSA-17 (VISA), Control) is reported as 8 µg/mL. For the same molecule, the MIC ([1]; MRSA / VISA, read-out: MIC of vancomycin, L266 (second line), EMRSA-17 (VISA), Control) was 8 µg/mL, the Vancomycin (antimicrobial plus BTA; quantity not named, MIC implied) (MRSA [5]; EMRSA-16, vancomycin alone) was 1 µg/mL and the Vancomycin (antimicrobial plus BTA; quantity not named, MIC implied) (MRSA [5]; EMRSA-17, vancomycin alone) was 2 µg/mL. The Vancomycin (antimicrobial plus BTA; quantity not named, MIC implied) (MRSA [5]; I-MRSA, vancomycin alone) was 0.5 µg/mL, the MIC [7] was 2 µg/mL and the “level of vancomycin to which resistance is conferred” value [3, 9] was ≥ 256 mg/L. For the same molecule, the “level of vancomycin to which resistance is conferred” value ([3]; vanE, E. faecalis) was 16 mg/L, the Vancomycin (antimicrobial plus BTA; quantity not named, MIC implied) (VRE; vancomycin alone) was > 256 µg/mL and the MIC ([8]; read-out: MIC of vancomycin, BBC) was 32 µg/mL. The MIC ([8]; read-out: MIC of vancomycin, E254) was 128 µg/mL, the MIC ([8]; read-out: MIC of vancomycin, E267) was 128 µg/mL and the MIC ([8]; read-out: MIC of vancomycin, E271) was 64 µg/mL. It also gave an MIC ([8]; read-out: MIC of vancomycin, E285) of 64 µg/mL, an MIC ([8]; read-out: MIC of vancomycin, E297) of 128 µg/mL and an MIC ([8]; read-out: MIC of vancomycin, GBC) of 64 µg/mL. For the same molecule, the MIC ([8]; read-out: MIC of vancomycin, S226) was 128 µg/mL, the MIC ([8]; read-out: MIC of vancomycin, S227) was 128 µg/mL and the MIC ([8]; read-out: MIC of vancomycin, S283) was 64 µg/mL. For the same molecule, the MIC ([8]; read-out: MIC of vancomycin, S302) was 64 µg/mL, the MIC ([8]; read-out: MIC of vancomycin, S315) was 64 µg/mL and the MIC ([8]; read-out: MIC of vancomycin, S317) was 128 µg/mL. It also gave an MIC ([8]; read-out: MIC of vancomycin, S319) of 64 µg/mL, an MIC ([8]; read-out: MIC of vancomycin, S333) of 64 µg/mL and an MIC ([8]; read-out: MIC of vancomycin, S337) of 32 µg/mL. For the same molecule, the MIC ([8]; read-out: MIC of vancomycin, S393) was 64 µg/mL, the MIC ([8]; read-out: MIC of vancomycin, S497) was 64 µg/mL and the MIC ([8]; read-out: MIC of vancomycin, S556) was 64 µg/mL. It also gave an MIC ([8]; read-out: MIC of vancomycin, WBC) of 64 µg/mL.

Source: patent publication US20060040871A1, “Bacterial transforming agent” (priority 2003, published 2006)
